Here are results for 87 molecules from a melting point compilation (Tetko et al.; mined from patent text by program, amines drawn as free bases though some values may be those of a salt).

Bounds are passed on as bounds.

Consider `CC(=O)c1ccc2c(c1)C1(c3ccccc3-c3ccccc31)c1ccccc1-2`, for which the melting point worked out at 225 °C.
The figure for `CCC1(C)CC2(C(=O)N(C)C(=O)N2C)C(C)C(C)(CC)N1C` (configuration not stated) is 77 to 88 °C.
The figure for `CC(C)(C)c1cc(-c2nc3n(c2SC#N)CCS3)cc(C(C)(C)C)c1O` is 178 to 179 °C; for `CC(C)(C)OC(=O)CN1C(=O)C(=O)c2ccccc21` it is 119 to 121 °C; for `Cc1noc(NS(=O)(=O)c2ccccc2-c2ccc(-c3ncco3)cc2/C=C/c2ccccc2)c1C` it is 102 to 109 °C.
`CCCN(c1cccc2cc(-c3nccs3)[nH]c12)S(=O)(=O)c1cccs1` yielded a melting point of 130 to 131 °C.
`O=c1ccc(-c2ccc(-c3ccc(=O)[nH]n3)cc2)n[nH]1` gave a melting point greater than 250 °C.
For `CCOC(=O)c1cn(-c2cc(N)c(F)cc2F)c2c(C)c(F)c(F)c(N)c2c1=O`, the melting point was 134 to 135 °C.
The figure for `CC(C)c1ccc(-c2cncc(-c3cccc(C(=O)O)c3)c2)cc1` is 155 to 156 °C; for `CC(C)c1oc(-c2ccccc2)c(-c2ccc(F)c(Oc3ccccc3)c2)c1C=O` it is 137 °C.
The figure for `C=CCc1ccc(OCCC(C)C)c2c(=O)cc(C(=O)OCC)oc12` is 104 to 106 °C; for `CCOC=CC(=O)Nc1cccc(C(=O)OC)c1` it is 108 to 110 °C; for `O=c1[nH][nH]c(=O)c2c(O)c3cc(Cl)ccc3nc12` it is 228 to 230 °C.
The figure for `COC(=O)c1cn(C(c2ccccc2)(c2ccccc2)c2ccccc2)cn1` is 147 to 152 °C.
In turn, `CSCCNC(=O)c1cccc(-c2cccc(Oc3cc(Cl)cc(Cl)c3)n2)c1` had a melting point of 123 to 124 °C.
The figure for `O=C(Nc1ccc2c(c1)CCSC2)OCc1ccccc1` is 116 to 118 °C.
The figure for `CCOC(=O)C1OC1C(=O)NC(CC(C)C)C(=O)NCCC(C)CO` (configuration not stated) is 92 to 95 °C; for `CC(=O)N1C(=O)c2ccccc2N(C(C)=O)C1C(Cl)(Cl)Cl` (configuration not stated) it is 152 to 154 °C.
The figure for `CCOC(=O)CCc1cn(Cc2ccc(OCc3nc(-c4ccco4)oc3C)cc2)nc1O` is 145 to 146 °C; for `O=C(Nc1ccc(-n2nc(C(F)(F)F)nc2Cl)cc1)c1ccncc1F` it is 167 to 170 °C; for `NC(=O)n1ccc(-c2ccc(Oc3ccc(F)cc3)cc2)n1` it is 141 to 143 °C.
Regarding `Cc1c(OCC(=O)O)ccc(-c2noc3ccccc23)c1C`, the melting point fell in the range of 146 to 152 °C.
The figure for `CCOc1cc2c(cc1OCC)C(c1cccc(N)c1)=NN=C(C)C2` is 133 to 134 °C; for `Cc1nn(C)c2nc(N)c(-c3ccc(F)cc3)nc12` it is 208 to 210 °C.
The figure for `COc1ccc(-c2cc(C)c(C(=O)NCCCCc3cccnc3)c(C)c2)cc1OC` is 117 to 119 °C; for `CC(C)[C@H](NC(=O)c1ccccc1)C(=O)NCC(=O)O` it is 190 to 191 °C.
Molecule `COc1cc(/C=C/C(=O)/C=C/c2cc(OC)c(O)c(OC)c2)cc(OC)c1O` showed a melting point of 166 to 168 °C.
As for `COC(=O)c1ccc(C(=O)NC(C)C)cc1S(N)(=O)=O`, the melting point fell in the range of 203 to 205 °C.
The molecule `COC(=O)C(C)c1ccc2c(=O)c3ccccc3ccc2c1` (configuration not stated) returned a melting point of 37 to 39 °C.
The figure for `COC(=O)CCc1cc2cc(Cl)ccc2n1S(=O)(=O)c1ccc2c(c1)CCN2C(C)=O` is 129 °C; for `CCn1nc(C(=O)NC2CN(C)CCN(Cc3cccc(C)c3)C2)c2ccccc21` (configuration not stated) it is 135 to 137 °C; for `Cc1ccc(C(O)(Cc2nnnn2C)c2ccc(C)cc2C)c(C)c1` it is 175 to 177 °C.
The figure for `Cn1c(C(F)(F)F)cc(=O)n(-c2ccc(OCc3ccc(Cl)cc3)cc2)c1=O` is 167 to 169 °C; for `Cc1nnsc1C(=O)c1[nH]c2ccc(Cl)cc2c1CC(=O)O` it is 229 to 230 °C; for `CCOC(=O)c1cn(-c2ccc(C(F)(F)F)cn2)nc1C` it is 88 to 89 °C.
The figure for `COc1cc(Cc2cnc(N)nc2NC(C)=O)cc(OC)c1C(C)(C)O` is 214 to 216 °C; for `Cc1cn(C2CC3OCC3O2)c(=O)[nH]c1=O` (configuration not stated) it is 188 to 190 °C; for `Nc1nc(-n2cc(C(=O)O)c(=O)c3cc(F)c(F)c(Br)c32)c(F)cc1F` it is 272 to 278 °C.
`CC(=O)S[C@H]1CC[C@H](/C=C/C=C/c2ccc(C(F)(F)F)cc2)CC1` showed a melting point of 113 to 115 °C.
`ClCc1ccc2cc(Cl)ccc2c1` displayed a melting point of 107 to 110 °C.
The figure for `COC(=O)C(Cl)=NNc1ccc(Cl)cc1` is 149 to 150 °C.
The figure for `Cc1c(-c2ccccc2)oc2c(C(=O)OCCN3CCCCC3)cccc2c1=O` is 85 to 86 °C; for `CC(=O)c1ccc2c(c1)[C@@H](O)[C@H](Br)C(C)(C)O2` (relative stereo) it is 84 to 86 °C; for `O=C(Nc1ccc(Br)cn1)[NH+]([O-])C(=O)c1c(Cl)cccc1Cl` (configuration not stated) it is 230 to 235 °C.
The figure for `CN1C(=O)SC(Cc2ccc(NC(=O)/C=C/c3cnn(C)c3-c3ccc(F)cc3)cc2)C1=O` (configuration not stated) is 228 to 229 °C.
`COc1ccc(C(=O)CN(C)C(=O)/C=C/c2cccnc2)cc1OC` came in with a melting point of 193 to 194 °C.
The figure for `O=C(CBr)c1ccc2nnnn2c1` is 108 to 110 °C; for `CCOC(=O)c1csc(Cc2ccccc2)n1` it is 78 to 79 °C.
The figure for `CC(=O)OC(c1cc2n(n1)CCOC2=O)C1(Br)C(=O)N2C(C(=O)OCc3ccc([N+](=O)[O-])cc3)=CSC21` (configuration not stated) is 107 to 110 °C.
The figure for `COC(=O)c1cc([N+](=O)[O-])cc([N+](=O)[O-])c1SCc1ccccc1` is 113 to 114 °C; for `Cc1[nH]cc2c(=O)n(-c3ccc(Cl)cc3)nc-2c1-c1cccc(C(=O)N2CCCC2)c1` it is 253 to 255 °C; for `OCc1cnoc1-c1ccc(F)c(Cl)c1` it is 106 to 107 °C.
On to `COc1ccc(CCN(C)CCCNc2c(Cl)cn[nH]c2=O)cc1OC`, for which the melting point lay within 89 to 90 °C.
For the molecule `COc1cccc2cc(CNCCNC(=O)C(C)(C)C)oc12`, the melting point was in the range of 81 to 82 °C.
`CCOC(=O)N1CCN(C2c3ccccc3C=Cc3ccccc32)CC1` registered a melting point of 159 to 160 °C.
The figure for `CCOc1nn(-c2ccc(C(F)(F)F)cn2)cc1CCCCOc1cc(CCC(=O)O)n(-c2ccccc2)n1` is 138 to 139 °C; for `Cc1ccn2c(C)c(-c3ccc4c(c3)NC(=O)CO4)nc2c1` it is 239 to 241 °C.
The figure for `CCC(=O)c1cc(C2(c3cccc(-c4cncnc4)c3)N=C(N)N(C)C2=O)cs1` (configuration not stated) is 167 to 172 °C; for `CNC1C=Cc2cc(O)ccc2CC1` (configuration not stated) it is 152 °C; for `Nc1ccc(-c2cccs2)c(C(=O)Nc2ccc3c(c2)CCC3)c1` it is 62 to 67 °C.
The figure for `CCCCc1nnc(-c2ccco2)n1Cc1ccc(NC(=O)c2ccccc2C(=O)O)cc1` is 170 to 171 °C.
Consider `CC(=O)N1CCN2c3c(cccc3C3CCCC32)C1` (configuration not stated), for which the melting point was in the range of 111 to 113 °C.
In turn, `O=S(=O)(NCC(O)(c1ccccc1)c1ccc(OCc2ccccc2)cc1)c1ccccc1` (configuration not stated) yielded a melting point of 148 to 149 °C.
The figure for `CN(C(=O)CN1C(=O)C(NC(=O)Nc2cccc(N)c2)N=C(CN2CCOCC2)c2ccccc21)c1ccccc1` (configuration not stated) is 158 to 160 °C.
The figure for `CN(C)c1ccc(C(=O)CCCC2CCN(Cc3ccccc3)CC2)cc1` is 83 to 85 °C; for `O=C(NCCOCCO[N+](=O)[O-])c1cncs1` it is 63 to 65 °C.
Take `Cc1cc2c3c(c1)NC(=O)c1ccccc1N3CC2`: the melting point lay in the range of 222 to 224 °C.
The figure for `FN(F)CC1(CN(F)F)COC1` is 43.5 to 44.5 °C.
The figure for `Cc1cccc(NC(=O)NCc2ccc(-c3n[nH]c4c3Cc3cc(CN5CCOCC5)ccc3-4)s2)c1` is 158 to 161 °C; for `CC(C)(C)c1ccc(O[C@@H]2CCC[C@H]2O)c(C(C)(C)C)c1` (relative stereo) it is 112 °C; for `CCN1CC2=C3C(=NN(c4ccc(C(C)C)cc4Br)C(=O)N3CC2)C(C)=N1` it is 144 to 146 °C.
The figure for `O=C(Cc1ccc(Cl)c([N+](=O)[O-])c1)N[C@H]1C[C@H](C(=O)O)Nc2cc(Cl)cc(Cl)c21` (relative stereo) is 233 to 235 °C; for `CCCc1ccc(NC(=O)c2cccnc2NCc2ccc(OC)nc2)cc1C(F)(F)F` it is 51 to 61 °C.
As to `CCCCCCCCCCCCCCCCCCS(=O)(=O)Nc1cc(C(=O)Nc2ccccc2)ccc1OC`, the melting point was 154 to 156 °C.
Consider `CC(C)CCCC(C)C1CCC2C3CC=C4CC(OCCCCCCSC5OC(CO)C(O)C(O)C5O)CCC4(C)C3CCC12C` (configuration not stated), for which the melting point was 110 °C.
For `COc1ccc(-c2[nH]nc3c2C(=O)c2c(NC(=O)Cc4ccc(NC(C)=O)cc4)cccc2-3)cc1`, the melting point amounted to 268 °C.
In turn, `Cc1oc2c(NC(=O)c3c(Cl)ccc(O)c3Cl)cccc2c1C` showed a melting point of 192 to 194 °C.
The figure for `COC(=O)C(=O)c1ccc(OCCOc2ccccc2)cc1` is 79 to 81 °C; for `COc1cc(C)c(C(=O)c2c(Cl)cncc2C(F)(F)F)c(OC)c1OC` it is 75 to 77 °C; for `O=[N+]([O-])c1ccc(Oc2ccccc2)c(Cl)c1NCc1ccc(Cl)cc1` it is 75 to 76 °C.
The figure for `NC(=O)N1C(=O)Cc2cc(N)ccc21` is 189 to 191 °C; for `CC(C)Nc1cccnc1N1CCN(C(=O)c2ccc(C(=O)NCC3CCCO3)cn2)CC1` (configuration not stated) it is 108 to 110 °C.
The figure for `CC(=O)Oc1ccc(-c2cnc(NC(=S)Cc3ccccc3)c(Cc3ccccc3)n2)cc1` is 143 to 145 °C; for `CCOC(=O)c1cnc(N(C)Cc2cc3nc(-c4cccc(OCCO)c4)nc(N4CCOCC4)c3s2)nc1` it is 216 to 220 °C.
Turning to `ClCc1cccc2cc(-c3ccccc3)oc12`, the melting point is 72 to 73 °C.
The figure for `Cc1ccc2ccc(Cn3c(=S)sc4ccccc43)c(O)c2n1` is 211 to 215 °C.
`Cc1cc(O)cc(C)c1-c1cccc2c1Oc1ccccc1S2` came in with a melting point of 116 °C.

A word on the melting point: it is the temperature, or range, at which the solid turns liquid.
